{"source": "paper PMC9865085", "about": "“Expression and Characterisation of the First Snail-Derived UDP-Gal: Glycoprotein-N-acetylgalactosamine β-1,3-Galactosyltransferase (T-Synthase) from Biomphalaria glabrata” (Molecules, 2023)", "key": {"[1]": {"target": "T1, T-synthase (UDP-Gal: glycoprotein-N-acetylgalactosamine β-1,3-galactosyltransferase) from Biomphalaria glabrata (Biomphalaria glabrata, UniProt A0A2C9JXL4)", "T1 construct": "full-length 388 aa type II transmembrane protein, C-terminal His-tag, codon-optimised synthetic gene, expressed in Sf9 cells; lysate or captured on anti-His magnetic beads", "T1 sequence (A0A2C9JXL4 1-388)": "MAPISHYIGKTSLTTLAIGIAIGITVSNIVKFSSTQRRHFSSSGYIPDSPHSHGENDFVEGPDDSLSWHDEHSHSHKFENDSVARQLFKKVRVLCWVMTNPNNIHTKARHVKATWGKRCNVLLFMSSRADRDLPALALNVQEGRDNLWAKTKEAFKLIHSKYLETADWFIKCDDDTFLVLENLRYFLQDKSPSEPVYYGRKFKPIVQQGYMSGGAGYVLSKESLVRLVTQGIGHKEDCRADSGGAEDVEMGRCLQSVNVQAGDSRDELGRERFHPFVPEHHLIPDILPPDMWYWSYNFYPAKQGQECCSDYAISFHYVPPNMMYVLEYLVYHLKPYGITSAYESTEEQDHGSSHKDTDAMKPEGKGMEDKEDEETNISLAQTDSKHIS", "test": "galactosyl transfer to pNP-α-GalNAc, HPLC", "format": "biochemical", "settings": "5 nmol added to 20 μL assay; 200 μM UDP-Gal, 1 mM pNP-α-GalNAc, 20 mM MnCl2, 2 mM ATP, 50 mM MES pH 6.5, 37 °C, 2 h; bead-bound enzyme or lysate not stated for this test"}, "[2]": {"target": "T1, T-synthase (UDP-Gal: glycoprotein-N-acetylgalactosamine β-1,3-galactosyltransferase) from Biomphalaria glabrata", "test": "galactosyl transfer, HPLC; product linkage by NMR", "format": "cell-based", "settings": "acceptor, 1 mM; 200 μM UDP-Gal, 20 mM MnCl2, 2 mM ATP, 50 mM MES pH 6.5, 37 °C, 2 h; Sf9 lysate, control lysate inactive"}}, "data": [{"smiles": "O=c1ccn([C@@H]2O[C@H](COP(=O)(O)O)[C@@H](O)[C@H]2O)c(=O)[nH]1", "note": "[UMP]", "values": [{"measurement": "% inhibition at 5 nmol", "setting": "[1]", "result": "~ 50%"}]}, {"smiles": "O=c1ccn([C@@H]2O[C@H](COP(=O)(O)OP(=O)(O)OP(=O)(O)O)[C@@H](O)[C@H]2O)c(=O)[nH]1", "note": "[UTP]", "values": [{"measurement": "% inhibition at 5 nmol", "setting": "[1]", "result": "~ 50%"}]}, {"smiles": "CC(=O)N[C@H]1[C@@H](Oc2ccc([N+](=O)[O-])cc2)O[C@H](CO)[C@H](O)[C@@H]1O", "note": "[pNP-α-GalNAc]", "values": [{"measurement": "galactosyl transfer, HPLC; product linkage by NMR", "setting": "[2]", "result": "the identity of the product pNP-α-GalNAc-β-1,3-Gal was clearly confirmed"}]}]}
